Here are results for 31 compounds from patent US20140073634A1 (Institute For Applied Cancer Science/The University of …, priority 2012, published 2014).

The IC50 is the concentration needed to halve the response being measured.

Counter-ions that a name gives are not always drawn. Bounds are passed on as bounds.

One assay has as its system 293T-HRE-GFP-luc cells. The assay can be described thus: Cell-based reporter assay for IC50 determinations (HRE-luciferase, hypoxia). The conditions noted are these: 6 h, 6 hrs hypoxia (1% O2), luminescence. The essentials: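 IC50s come from four-parameter logistic fits of luminescence. Compounds in 1:3 DMSO series were added to 293T-HRE-GFP-luc cells, 30 min normoxia preceding 6 hrs at 1% O2, 37° C; HRE-luciferase signal was then measured with Steadylite Plus reagent.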
For the compound `CS(=O)(=O)CCCOc1cccc(Cn2cc(-c3noc(-c4ccc(S(C)(=O)=O)cc4)n3)ccc2=O)c1` [Example 205, 5-[5-(4-methanesulfonylphenyl)-1,2,4-oxadiazol-3-yl]-1-{[3-(3-methanesulfonylpropoxy)phenyl]methyl}-1,2-dihydropyridin-2-one], the IC50 is less than 100 nM.

`CN1CCN(c2cccc(Cn3cc(-c4cc(-c5ccc(OC(F)(F)F)cc5)no4)ccc3=O)c2)CC1` [Example 96b, 1-(3-(4-methylpiperazin-1-yl)benzyl)-5-(3-(4-(trifluoromethoxy)phenyl)isoxazol-5-yl)pyridin-2(1H)-on] returned a half-inhibitory concentration (IC50) of less than 100 nM.

The compound `COCCOc1cccc(Cn2cc(-c3noc(-c4ccc(C(=O)N5CCCC5)cc4)n3)ccc2=O)c1` [Example 219, 1-{[3-(2-methoxyethoxy)phenyl]methyl}-5-{5-[4-(pyrrolidine-1-carbonyl)phenyl]-1,2,4-oxadiazol-3-yl}-1,2-dihydropyridin-2-one] registered an IC50 of 100 to 1000 nM.

The compound `CNS(=O)(=O)c1cccc(Cn2cc(-c3nc(-c4ccc(OC(F)(F)F)cc4)no3)ccc2=O)c1` [Example 165, N-methyl-3-[(2-oxo-5-{3-[4-(trifluoromethoxy)phenyl]-1,2,4-oxadiazol-5-yl}-1,2-dihydropyridin-1-yl)methyl]benzene-1-sulfonamide] gave an IC50 of less than 100 nM.

As to `COCCOc1cccc(Cn2cc(-c3noc(-c4ccc(S(C)(=O)=O)cc4)n3)ccc2=O)c1` [Example 202, 5-[5-(4-methanesulfonylphenyl)-1,2,4-oxadiazol-3-yl]-1-{[3-(2-methoxyethoxy)phenyl]methyl}-1,2-dihydropyridin-2-one], the concentration for half-maximal inhibition (IC50) lay within 100 to 1000 nM.

In turn, `COCCOc1cccc(Cn2cc(-c3noc(-c4ccc(S(=O)(=O)C(F)F)cc4)n3)ccc2=O)c1` [Example 221, 5-[5-(4-difluoromethanesulfonylphenyl)-1,2,4-oxadiazol-3-yl]-1-{[3-(2-methoxyethoxy)phenyl]methyl}-1,2-dihydropyridin-2-one] came in with an IC50 of less than 100 nM.

Turning to `COCCOc1cccc(Cn2cc(-c3noc(-c4ccc(OCC(F)(F)F)cc4)n3)ccc2=O)c1` [Example 203, 1-{[3-(2-methoxyethoxy)phenyl]methyl}-5-{5-[4-(2,2,2-trifluoroethoxy)phenyl]-1,2,4-oxadiazol-3-yl}-1,2-dihydropyridin-2-one], the half-inhibitory concentration (IC50) is less than 100 nM.

Compound `COCCOc1cccc(Cn2cc(-c3noc(-c4cnc(OC)nc4)n3)ccc2=O)c1` [Example 231, 1-{[3-(2-methoxyethoxy)phenyl]methyl}-5-[5-(2-methoxypyrimidin-5-yl)-1,2,4-oxadiazol-3-yl]-1,2-dihydropyridin-2-one] registered an IC50 of 100 to 1000 nM.

As to `CC1(C)CCN(c2cc(Cn3cc(-c4nc(-c5ccc(OC(F)(F)F)cc5)no4)ccc3=O)ccn2)CC1` [Example 154, 1-{[2-(4,4-dimethylpiperidin-1-yl)pyridin-4-yl]methyl}-5-{3-[4-(trifluoromethoxy)phenyl]-1,2,4-oxadiazol-5-yl}-1,2-dihydropyridin-2-one], the 50% inhibitory concentration (IC50) was less than 100 nM.

As to `O=c1ccc(-c2nc(-c3ccc(OC(F)(F)F)cc3)no2)cn1Cc1cccc(CS)c1` [Example 45, 1-{[3-(Sulfanylmethyl)phenyl]methyl}-5-{3-[4-(trifluoromethoxy)phenyl]-1,2,4-oxadiazol-5-yl}-1,2-dihydropyridin-2-one], the IC50 is less than 100 nM.

`NCCOc1cccc(Cn2cc(-c3nc(-c4ccc(OC(F)(F)F)cc4)no3)ccc2=O)c1` [Example 34, 1-{[3-(2-Aminoethoxy)phenyl]methyl}-5-{3-[4-(trifluoromethoxy)phenyl]-1,2,4-oxadiazol-5-yl}-1,2-dihydropyridin-2-one] came in with an IC50 of less than 100 nM.

`N#Cc1cccc(Cn2cc(-c3nc(-c4ccc(OC(F)(F)F)cc4)no3)ccc2=O)c1` [Example 122, 3-((2-oxo-5-(3-(4-(trifluoromethoxy)phenyl)-1,2,4-oxadiazol-5-yl)pyridin-1(2H)-yl)methyl)benzonitrile] returned an IC50 of less than 100 nM.

Compound `CCN(CC)S(=O)(=O)c1cccc(Cn2cc(-c3nc(-c4ccc(OC(F)(F)F)cc4)no3)ccc2=O)c1` [Example 164, N,N-diethyl-3-[(2-oxo-5-{3-[4-(trifluoromethoxy)phenyl]-1,2,4-oxadiazol-5-yl}-1,2-dihydropyridin-1-yl)methyl]benzene-1-sulfonamide] came in with a half-maximal inhibitory concentration (IC50) of less than 100 nM.

Regarding `CC(C)(O)C(O)c1cccc(Cn2cc(-c3nc(-c4ccc(OC(F)(F)F)cc4)no3)ccc2=O)c1` (stereo not shown) [Example 57, 1-(3-(1,2-Dihydroxy-2-methylpropyl)benzyl)-5-(3-(4-(trifluoromethoxy)phenyl)-1,2,4-oxadiazol-5-yl)pyridin-2(1H)-one], the IC50 was less than 100 nM.

Compound `C=CCOc1cccc(Cn2cc(-c3nc(-c4ccc(OC(F)(F)F)cc4)no3)ccc2=O)c1` [Example 54, 1-(3-(Allyloxy)benzyl)-5-(3-(4-(trifluoromethoxy)phenyl)-1,2,4-oxadiazol-5-yl)pyridin-2(1H)-one] came in with an IC50 of less than 100 nM.

In turn, `COCCOc1cccc(Cn2cc(-c3noc(-c4cnc(N5CCCCC5)nc4)n3)ccc2=O)c1` [Example 88, 1-(3-(2-Methoxyethoxy)benzyl)-5-(5-(2-(piperidin-1-yl)pyrimidin-5-yl)-1,2,4-oxadiazol-3-yl)pyridin-2(1H)-one] gave a half-maximal inhibitory concentration (IC50) of less than 100 nM.

In turn, `COC(=O)C(C)(C)c1cccc(Cn2nc(-c3nc(-c4ccc(OC(F)(F)F)cc4)no3)ccc2=O)c1` [Example 30, Methyl 2-methyl-2-{3-[(6-oxo-3-{3-[4-(trifluoromethoxy)phenyl]-1,2,4-oxadiazol-5-yl}-1,6-dihydropyridazin-1-yl)methyl]phenyl}propanoate] registered an IC50 of less than 100 nM.

In turn, `COC(=O)c1cc(Cn2nc(-c3nc(-c4ccc(OC(F)(F)F)cc4)no3)ccc2=O)ccn1` [Example 117, methyl 4-((6-oxo-3-(3-(4-(trifluoromethoxy)phenyl)-1,2,4-oxadiazol-5-yl)pyridazin-1(6H)-yl)methyl)picolinate] had an IC50 of 1000 to 10000 nM.

As for `COCCOc1cccc(Cn2cc(-c3noc(-c4ccc(N5CCOC5=O)cc4)n3)ccc2=O)c1` [Example 190, 1-{[3-(2-methoxyethoxy)phenyl]methyl}-5-{5-[4-(2-oxo-1,3-oxazolidin-3-yl)phenyl]-1,2,4-oxadiazol-3-yl}-1,2-dihydropyridin-2-one], the half-inhibitory concentration (IC50) is less than 100 nM.

`COCCOc1cccc(Cn2cc(-c3noc(-c4ccc(C(C)(C)O)cc4)n3)ccc2=O)c1` [Example 73, 5-(5-(4-(2-Hydroxypropan-2-yl)phenyl)-1,2,4-oxadiazol-3-yl)-1-(3-(2-methoxyethoxy)benzyl)pyridin-2(1H)-one] registered a half-inhibitory concentration (IC50) of less than 100 nM.

`O=C(c1cccc(Cn2cc(-c3nc(-c4ccc(OC(F)(F)F)cc4)no3)ccc2=O)c1)N1CCOCC1` [Example 114, 1-(3-(morpholine-4-carbonyl)benzyl)-5-(3-(4-(trifluoromethoxy)phenyl)-1,2,4-oxadiazol-5-yl)pyridin-2(1H)-one]: the concentration for half-maximal inhibition (IC50) is less than 100 nM.

The compound `COC(=O)c1cc(Cn2nc(-c3nc(-c4ccc(OC(F)(F)F)cc4)no3)ccc2=O)ccc1F` [Example 126, methyl 2-fluoro-5-((6-oxo-3-(3-(4-(trifluoromethoxy)phenyl)-1,2,4-oxadiazol-5-yl)pyridazin-1(6H)-yl)methyl)benzoate] registered an IC50 of less than 100 nM.

For `COC(=O)c1cccc(Cn2nc(-c3nc(-c4ccc(OC(F)(F)F)cc4)no3)ccc2=O)c1` [Example 109, methyl 3-((6-oxo-3-(3-(4-(trifluoromethoxy)phenyl)-1,2,4-oxadiazol-5-yl)pyridazin-1(6H)-yl)methyl)benzoate], the IC50 is 100 to 1000 nM.

`COCCOc1cccc(Cn2cc(-c3noc(-c4ccc(C(C)(C)C)cc4)n3)ccc2=O)c1` [Example 230, 5-[5-(4-tert-butylphenyl)-1,2,4-oxadiazol-3-yl]-1-{[3-(2-methoxyethoxy)phenyl]methyl}-1,2-dihydropyridin-2-one] gave an IC50 of 100 to 1000 nM.

Regarding `O=c1ccc(-c2nc(-c3ccc(OC(F)(F)F)cc3)no2)cn1Cc1cccc(N2CCCC2)c1` [Example 31, 1-{[3-(Pyrrolidin-1-yl)phenyl]methyl}-5-{3-[4-(trifluoromethoxy)phenyl]-1,2,4-oxadiazol-5-yl}-1,2-dihydropyridin-2-one], the 50% inhibitory concentration (IC50) is less than 100 nM.

In turn, `COCCOc1cccc(Cn2cc(-c3noc(-c4ccc(C(C)(C)OC)cc4)n3)ccc2=O)c1` [Example 81, 1-(3-(2-Methoxyethoxy)benzyl)-5-(5-(4-(2-methoxypropan-2-yl)phenyl)-1,2,4-oxadiazol-3-yl)pyridin-2(1H)-one] came in with an IC50 of less than 100 nM.

Take `CC(=O)N1CCN(c2cccc(Cn3cc(-c4nc(-c5ccc(OC(F)(F)F)cc5)no4)ccc3=O)c2)CC1` [Example 182]: the half-maximal inhibitory concentration (IC50) is less than 100 nM.

Take `CN1CCN(C(=O)c2cccc(Cn3nc(-c4nc(-c5ccc(OC(F)(F)F)cc5)no4)ccc3=O)c2)CC1` [Example 112, 2-(3-(4-methylpiperazine-1-carbonyl)benzyl)-6-(3-(4-(trifluoromethoxy)phenyl)-1,2,4-oxadiazol-5-yl)pyridazin-3(2H)-one]: the half-maximal inhibitory concentration (IC50) was in the range of 100 to 1000 nM.

`Cc1ccc(C(=O)Nc2ccc(OC(F)(F)F)cc2)c(=O)n1Cc1cccc(N2CCN(C)CC2)c1` [Example 10, 1-Methyl-4-(3-((6-methyl-2-oxo-3-((4-(trifluoromethoxy)phenyl)carbamoyl)pyridin-1(2H)-yl)methyl)phenyl)piperazin-1-ium trifluoroacetate] yielded an IC50 of less than 100 nM.

`Cc1ccc(Cn2cc(-c3nc(-c4ccc(OC(F)(F)F)cc4)no3)ccc2=O)cc1` [Example 26, 1-(4-Methylbenzyl)-5-(3-(4-(trifluoromethoxy)phenyl)-1,2,4-oxadiazol-5-yl)pyridin-2(1H)-one] returned an IC50 of less than 100 nM.

The same assay, now with this note: 6 hrs hypoxia (1% O2), luminescence.
In the case of `COCCOc1cccc(Cn2cc(-c3noc(-c4ccc(C(F)(F)F)cc4)n3)ccc2=O)c1` [Example 65, 1-(3-(2-Methoxyethoxy)benzyl)-5-(5-(4-(trifluoromethyl)phenyl)-1,2,4-oxadiazol-3-yl)pyridin-2(1H)-one], the IC50 fell in the range of 100 to 1000 nM.
